Measured values taken from patent US9714266B2, “Estra-1,3,5(10),16-tetraene-3-carboxamides for inhibition of 17β-hydroxysteroid dehydrogenase (AKR1C3)” (priority 2013, dated 2017).
Several values for one entry are separate records, joined by “and”; a condition that tells them apart may be missing. Equal values may be shown once.

Tests used:
[1] = target: T1, AKR1C3 (Homo sapiens (Human), UniProt P42330); test: AKR1C3 enzyme assay (coumberone reduction, fluorescence); assay type: biochemical; details: recombinant human AKR1C3, coumberone 0.3 μM, NADPH 10 μM; read-out: AKR1C3 enzyme inhibition IC50
Method: The AKR1C3-inhibitory action of the substances of this invention was measured in the AKR1C3 assay described in the paragraphs which follow. Essentially, the enzyme activity is measured by quantifying the coumberol formed from coumberone ([…]., and […]. AM. CHEM. SOC. 130, 14123-14128 (2008) […]., Bauman, D. R., Penning, T. M., and […]., Proc. Natl. Acad. Sci. USA 103, 13304-13309 (2006)). In this assay, the increase in the highly fluorescent coumberol can be determined by NADPH (nicotinamide adenine dinucleotide phosphate)-dependent reduction of the nonfluorescent coumberone by AKR1C3. […] NM_003739). This was expressed as the GST (glutathione S-transferase) fusion protein in E. coli and purified by means of glutathione-Sepharose affinity chromatography. The GST was removed by thrombin digestion with subsequent size exclusion chromatography (Dufort, I., Rheault, P., Huang, X F., Soucy, P., and Luu-The, V., Endocrinology 140, 568-574 (1999)). […] The concentration of the AKR1C3 was matched to the respective activity of the enzyme preparation and set such that the assay worked within the linear range. Typical concentrations were in the region of 1 nM. The reaction was stopped by adding 5 μl of a stop solution consisting of the inhibitor EM-1404 [F. Labrie et al. U.S. Pat. […] Subsequently, the fluorescence of coumberol was measured at 520 nm (excitation at 380 nm) with a suitable measuring instrument (Pherastar from BMG Labtechnologies).

[2] = target: T1, AKR1C3; test: AKR1C3 inhibition in a cell-based system (transfected HEK293 cells, coumberol fluorescence); details: HEK293 cells transfected with AKR1C3 expression plasmid; read-out: Cellular AKR1C3 inhibition IC50
Method: The inhibition of AKR1C3 by the substances described in this invention was measured in a cell-based assay using […] as the substrate for the AKR1C3 (Halim, M., Yee, D. J., and Sames, D., J. AM. CHEM. SOC. 130, 14123-14128 (2008) and Yee, D. J., Balsanek, V., Bauman, D. R., Penning, T. M., and Sames, D., Proc. Natl. Acad. Sci. USA 103, 13304-13309 (2006)) (cf. Example 48).
The cell system used was HEK293 cells (ATCC, USA) (cell culture medium: DMEM, 1.5 g of glucose, 10% FCS, PSG). The cells were transfected with an AKR1C3 expression plasmid (pCMV6-AC-AKR1C3, GenBank Accession No. NM_003739.4) overnight (X-tremeGENE HP, Roche). The next morning, the cells were sown into black 96-well culture plates with a cell density of 40 000 cells/well (Greiner Bio-One, Frickenhausen, Germany). 7 h later, the cells were incubated with the test substances (dissolved in 100× concentration in DMSO, final concentration between 10^−11M and 10^−5M) and […] (dissolved in cell culture medium, final concentration 5×10^−6M) overnight. The following morning, the fluorescence of coumberol was measured at 535 nm (excitation at 355 nm) with a suitable measuring instrument (Mithras, from Berthold). […] The data were normalized (transfected cells without inhibitor, only DMSO=0% inhibition; transfected cells, 10 μM EM-1404 inhibitor [F. Labrie et al. U.S. Pat. No. 6,541,463, 2003]=100% inhibition) and IC50 values were calculated by a 4-parameter fit.

[3] = target: Human CYP17A1 (Homo sapiens (Human), UniProt P05093); test: Inhibition of Cyp17A1 (recombinant enzyme, 3H-progesterone conversion, HPLC); assay type: biochemical; details: for IC50: human CYP17, mean of 3 or 4 independent IC50 values, read-out: IC50 ± SD CYP17
Method: The inhibition of CYP17A1 by the test compounds was evaluated by means of recombinant enzyme. Human CYP17A1 was expressed in E. coli (Ehmer, P. B. et al.; J. Steroid Biochem. Mol. […] After evaporating the organic phase, the steroids were taken up in acetonitrile. 16α-Hydroxyprogesterone, 17α-hydroxyprogesterone and progesterone were separated with acetonitrile/water (45:55) as mobile phase on a C18 reverse phase chromatography column (Nucleodur C18 Gravity, 3 μm, Macherey-Nagel, Düren) in an HPLC System (Agilent 1100 Series, Agilent Technologies, Waldbronn). Detection and quantification of the steroids were conducted by means of a Radioflow detector (Berthold Technologies, Bad Wildbad). The inhibition was calculated by the following formula: [formula] Each value was calculated from at least three independent experiments.

[4] = target: recombinant human AKR1C1 (Homo sapiens (Human), UniProt Q04828); test: AKR1C1 inhibition (NADPH consumption, phenanthrenequinone); assay type: biochemical
Method: (§1) The AKR1C1/AKR1C2/AKR1C4-inhibitory action of the inventive substances, for determination of the selectivity of this invention, was measured in the assay described in the paragraphs which follow. Essentially, the enzyme activity is measured by the quantification of NADPH (nicotinamide adenine dinucleotide phosphate) consumption in the conversion of phenanthrenequinone (PQ) by the AKR1C enzymes. […] NM_001353.5, NM_001354, NM_001818). This was expressed as the GST (glutathione S-transferase) fusion protein in E. coli and purified by means of glutathione-Sepharose affinity chromatography. The GST was removed by thrombin digestion with subsequent size exclusion chromatography (Dufort, I., Rheault, P., Huang, X F., Soucy, P., and Luu-The, V., Endocrinology 140, 568-574 (1999)). […] The mixture was incubated at 37° C. for 3 h, and the fluorescence was determined at the end of the reaction. […] Typically, the test substances were tested on the same microtitre plate in […] in the range from 10 μM to 1 pM (10 μM, 1 μM, 100 nM, 10 nM, 1 nM, 100 pM, 10 pM, 1 pM). As described, the pharmacological substances claimed were tested for their inhibitory effect on AKR1C enzymes 1, 2 and 4 (see Table 4).

[5] = target: recombinant human AKR1C2 (Homo sapiens (Human), UniProt P52895); test: AKR1C2 inhibition (NADPH consumption, phenanthrenequinone); assay type: biochemical
Method: as §1

[6] = target: recombinant human AKR1C4 (Homo sapiens (Human), UniProt P17516); test: AKR1C4 inhibition (NADPH consumption, phenanthrenequinone); assay type: biochemical
Method: as §1

Human CYP17A1, sequence (P05093 whole entry): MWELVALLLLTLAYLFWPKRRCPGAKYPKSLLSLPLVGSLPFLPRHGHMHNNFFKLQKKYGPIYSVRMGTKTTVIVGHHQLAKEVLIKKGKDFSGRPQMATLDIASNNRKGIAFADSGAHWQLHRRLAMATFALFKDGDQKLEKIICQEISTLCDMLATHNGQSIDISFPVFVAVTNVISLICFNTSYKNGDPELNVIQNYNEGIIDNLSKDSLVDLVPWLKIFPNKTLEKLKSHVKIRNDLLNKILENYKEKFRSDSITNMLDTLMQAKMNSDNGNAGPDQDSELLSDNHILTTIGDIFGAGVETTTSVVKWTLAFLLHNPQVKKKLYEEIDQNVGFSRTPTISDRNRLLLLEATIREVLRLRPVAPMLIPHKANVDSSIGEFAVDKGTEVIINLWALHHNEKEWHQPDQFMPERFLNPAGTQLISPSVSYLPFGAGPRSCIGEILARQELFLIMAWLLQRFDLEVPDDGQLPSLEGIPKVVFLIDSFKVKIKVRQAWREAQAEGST
recombinant human AKR1C2, sequence (P52895 whole entry): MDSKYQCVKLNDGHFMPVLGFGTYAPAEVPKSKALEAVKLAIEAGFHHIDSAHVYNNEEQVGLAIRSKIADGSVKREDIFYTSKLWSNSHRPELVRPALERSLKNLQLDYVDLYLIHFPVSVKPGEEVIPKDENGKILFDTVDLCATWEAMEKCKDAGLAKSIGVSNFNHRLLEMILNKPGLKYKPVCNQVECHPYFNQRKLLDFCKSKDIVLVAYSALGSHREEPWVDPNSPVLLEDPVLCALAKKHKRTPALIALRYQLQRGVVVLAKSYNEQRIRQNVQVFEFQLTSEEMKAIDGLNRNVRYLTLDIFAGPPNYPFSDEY
recombinant human AKR1C1, sequence (Q04828 whole entry, the tested form may be a part): as the sequence (P52895 whole entry) above, with V38T, H47R, V54L, S87C, M151V, H170R, L172Q counted along it
T1 sequence (P42330 whole entry): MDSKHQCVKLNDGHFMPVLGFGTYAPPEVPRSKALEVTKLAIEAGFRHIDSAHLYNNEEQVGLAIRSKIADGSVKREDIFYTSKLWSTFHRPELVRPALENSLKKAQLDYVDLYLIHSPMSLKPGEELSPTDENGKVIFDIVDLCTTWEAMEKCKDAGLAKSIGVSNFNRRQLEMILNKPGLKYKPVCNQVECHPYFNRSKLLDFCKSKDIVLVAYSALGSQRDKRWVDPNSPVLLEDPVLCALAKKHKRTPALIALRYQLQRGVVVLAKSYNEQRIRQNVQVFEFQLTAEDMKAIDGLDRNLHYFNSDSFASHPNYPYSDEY
recombinant human AKR1C4, sequence (P17516 whole entry): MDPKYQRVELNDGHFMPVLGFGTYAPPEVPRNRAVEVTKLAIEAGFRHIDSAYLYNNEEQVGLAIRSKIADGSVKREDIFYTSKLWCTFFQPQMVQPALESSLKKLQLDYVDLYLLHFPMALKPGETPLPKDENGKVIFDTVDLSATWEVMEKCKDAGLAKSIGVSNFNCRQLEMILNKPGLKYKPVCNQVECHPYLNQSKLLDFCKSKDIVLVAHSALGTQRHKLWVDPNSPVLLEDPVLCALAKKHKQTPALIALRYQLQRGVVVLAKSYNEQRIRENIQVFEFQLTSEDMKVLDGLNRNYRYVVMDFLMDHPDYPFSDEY

| Compound | IC50 [1] | IC50 [2] | IC50 [3] [µM] | Inhibition of AKR1C1 (in words) [4] | Inhibition of AKR1C2 (in words) [5] | Inhibition of AKR1C4 (in words) [6] | other results |
| --- | --- | --- | --- | --- | --- | --- | --- |
| C[C@]12CC[C@@H]3c4ccc(C(=O)NCC(O)C(F)(F)F)cc4CC[C@H]3[C@@H]1CC=C2c1cncc(F)c1 (mixture of isomers) [Example 20, 17-(5-fluoropyridin-3-yl)-N—[(RS)-3,3,3-trifluoro-2-hydroxypropyl]oestra-1,3,5(10),16-tetraene-3-carboxamide] | 0.012 µM and 0.008 µM and 0.02 µM and 0.016 µM | 0.032 µM and 0.042 µM | > 20 |  |  |  |  |
| C[C@]12CC[C@@H]3c4ccc(C(N)=O)cc4CC[C@H]3[C@@H]1CC=C2c1cncc(F)c1 [Example 4, 17-(5-fluoropyridin-3-yl)oestra-1,3,5(10),16-tetraene-3-carboxamide] | 0.004 µM |  | > 20 |  |  |  |  |
| O=C1OC(c2ccc(O)cc2)(c2ccc(O)cc2)c2ccccc21 [phenolphthalein] |  |  |  | shows inhibition | shows inhibition | shows inhibition | IC50 ([4]; tested up to 10 μM, read-out: AKR1C1 enzyme inhibition IC50): 0.046 µM and 0.06 µM; IC50 ([5]; tested up to 10 μM, read-out: AKR1C2 enzyme inhibition IC50): 0.554 µM and 0.438 µM; IC50 ([6]; tested up to 10 μM, read-out: AKR1C4 enzyme inhibition IC50): 0.021 µM and 0.017 µM |
| C[C@]12CC[C@@H]3c4ccc(C(N)=O)cc4CC[C@H]3[C@@H]1CC=C2c1cccnc1 [Example 1, 17-(pyridin-3-yl)oestra-1,3,5(10),16-tetraene-3-carboxamide] | 0.005 µM and 0.006 µM | 0.027 µM and 0.028 µM and 0.066 µM and 0.013 µM |  | no inhibition | no inhibition | no inhibition | AKR1C1 enzyme inhibition IC50 ([4]; tested up to 10 μM): no effect; AKR1C2 enzyme inhibition IC50 ([5]; tested up to 10 μM): no effect; AKR1C4 enzyme inhibition IC50 ([6]; tested up to 10 μM): no effect |
| C[C@]12CC[C@H](O)CC1=CC[C@@H]1[C@@H]2CC[C@]2(C)C(c3cccnc3)=CC[C@@H]12 [Abiraterone, reference compound] |  |  |  |  |  |  | Inhibition of Cyp17A1 (in words) ([3]; up to a substance concentration of 20 μM where stated): active |
